# According to US8524715B2, “Phenoxyacetic acid derivatives useful for treating respiratory diseases” (Astrazeneca AB, priority 2004, dated 2013):
# Target: T1, rhCRTh2 (Homo sapiens, UniProt Q9Y5Y4)
# T1 construct: expressed in transfected cells; host or cells: HEK cells (membrane preparation)
# T1 sequence (Q9Y5Y4 1-395): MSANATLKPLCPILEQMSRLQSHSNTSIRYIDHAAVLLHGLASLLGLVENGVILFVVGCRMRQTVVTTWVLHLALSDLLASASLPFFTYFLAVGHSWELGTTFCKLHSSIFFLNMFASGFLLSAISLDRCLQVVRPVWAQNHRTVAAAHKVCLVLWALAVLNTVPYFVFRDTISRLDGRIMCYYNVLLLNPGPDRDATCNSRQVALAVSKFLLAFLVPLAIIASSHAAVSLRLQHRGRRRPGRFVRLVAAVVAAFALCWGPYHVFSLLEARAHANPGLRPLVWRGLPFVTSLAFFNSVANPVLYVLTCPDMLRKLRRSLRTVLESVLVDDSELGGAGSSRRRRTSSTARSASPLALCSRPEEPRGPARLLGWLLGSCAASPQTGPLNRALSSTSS
# Assay: Ligand Binding Assay ([3H]PGD2 SPA binding)
# Settings: [3H]PGD2 binding, membranes of HEK cells expressing rhCRTh2/Gα16, SPA beads, 2 hours room temperature; read-out: pIC50 value (converted)
# Procedure: [^3H]PGD2 was purchased from Perkin Elmer Life Sciences with a specific activity of 100-210 Ci/mmol. All other chemicals were of analytical grade.
# HEK cells expressing rhCRTh2/Gα16 were routinely maintained in DMEM containing 10% Foetal Bovine Serum (HyClone), 1 mg/ml geneticin, 2 mM L-glutamine and 1% non-essential amino acids. For the preparation of membranes, the adherent transfected HEKcells were grown to confluence in two layer tissue culture factories (Fisher, catalogue number TKT-170-070E). Maximal levels of receptor expression were induced by addition of […] sodium butyrate for the last 18 hours of culture. The adherent cells were washed once with phosphate buffered saline (PBS, 50 ml per cell factory) and detached by the addition of 50 ml 0.1 mM dithiothreitol, 1 mM EDTA, 0.1 mM phenyl methyl sulphonyl fluoride and 100 μg/ml bacitracin]. Cells were pelleted by centrifugation at 220×g for 10 minutes at 4° C., re-suspended in half the original volume of fresh membrane homogenisation buffer and disrupted using a Polytron homogeniser for 2×20 second bursts keeping the tube in ice at all times. Unbroken cells were removed by centrifugation at 220×g for 10 minutes at 4° C. and the membrane fraction pelleted by centrifugation at 90000×g for 30 minutes at 4° C. The final pellet was re-suspended in 4 ml of membrane homogenisation buffer per cell factory used and the protein content determined. Membranes were stored at −80° C. in suitable aliquots.
# All assays were performed in Corning clear bottomed, white 96-well NBS plates (Fisher). Prior to assay, the HEK cells membranes containing CRTh2 were coated onto SPA PVT WGA beads (Amersham). For coating membranes were incubated with beads at typically 25 μg membrane protein per mg beads at 4° C. with constant agitation overnight. (The optimum coating concentrations were determined for each batch of membranes) The beads were pelleted by centrifugation (800×g for 7 minutes at 4° C.), washed once with assay buffer (50 mM HEPES pH 7.4 containing 5 mM magnesium chloride) and finally re-suspended in assay buffer at a bead concentration of 10 mg/ml.
# Each assay contained 20 μl of 6.25 nM [^3H]PGD2, 20 μl membrane saturated SPA beads both in assay buffer and 10 μl of compound solution or 13,14-dihydro-15-keto prostaglandin D2 (DK-PGD2, for determination of non-specific binding, Cayman chemical company).
# Compounds and DK-PGD2 were dissolved in DMSO and diluted in the same solvent to 100× the required final concentration. […] The assay plate was incubated at room temperature for 2 hours and counted on a Wallac Microbeta liquid scintillation counter (1 minute per well).
row,SMILES,IC50 [nM]
1,"O=C(O)COc1ccc(C(F)(F)F)cc1CN1CCN(C(=O)Cc2cccs2)CC1 [Example 42, [2-[[4-(2-thienylacetyl)-1-piperazinyl]methyl]-4-(trifluoromethyl)phenoxy]-acetic Acid]",132
2,"O=C(O)COc1ccc(C(F)(F)F)cc1CN1CCCN(S(=O)(=O)c2ccc(F)cc2)CC1 [example 7, [2-[[4-[(4-fluorophenyl)sulfonyl]hexahydro-1H-1,4-diazepin-1-yl]methyl]-4-(trifluoromethyl)phenoxy]-acetic acid]",89.1
3,"CC1CN(Cc2cc(Cl)ccc2OCC(=O)O)CCN1S(=O)(=O)c1ccccc1 (stereo not shown) [example 57, [4-Chloro-2-[[3-methyl-4-(phenylsulfonyl)-1-piperazinyl]methyl]phenoxy]acetic Acid]",5.01
4,"C[C@H]1CN(Cc2cc(Cl)ccc2OCC(=O)O)CCN1C(=O)Cc1cccc(F)c1 [example 91, [4-chloro-2-[[(3S)-4-[(3-fluorophenyl)acetyl]-3-methyl-1-piperazinyl]methyl]phenoxy]-acetic Acid]",15.8
